Earlier results, collected in patent US12285420B2 (ACASTI PHARMA U.S., INC., priority 2018, dated 2025).

Experiments:
[1] = nimodipine-treated subarachnoid hemorrhage (SAH) patients
[2] = man, oral administration

Compound: COCCOC(=O)C1=C(C)NC(C)=C(C(=O)OC(C)C)C1c1cccc([N+](=O)[O-])c1 (centres unmarked) [nimodipine, isopropyl 2-methoxyethyl 1,4-dihydro-2,6-dimethyl-4-(m-nitrophenyl)-3,5-pyridinedicarboxylate]
- Concentration of nimodipine detected in the cerebrospinal fluid [1]: ≤ 12.5 ng/mL
- Half-life equivalent to earlier elimination rates [2]: 1 to 2 h
